In patent US7659277B2, “Ubiquitin ligase inhibitors and methods related thereto” (Proteologies, Ltd., priority 2003, dated 2010) one finds activity and IC50 data, which are given here for 5 molecules.

The test system of test [1] is HIV-1. Briefly: HIV maturation (budding) in virus-like particle assay, HIV-1 p24 antigen ELISA. It counts as cell-based. Conditions: Human immunodeficiency virus 1, read-out: Budding (3 μM). The text has this: Compounds were further assessed for effects on maturation of HIV particles in a virus-like particle assay.
(An ELISA detects its analyte on a solid surface through an enzyme-linked reagent.)

Test [2] addresses T1, POSH (Homo sapiens, UniProt Q7Z6J0).
T1 construct: GST-POSH lot NB81/p.118 3.6 mg/ml; fused on or other part: GST tag, used for detection with anti-GST XL665
T1 sequence (Q7Z6J0 1-269 limits assumed): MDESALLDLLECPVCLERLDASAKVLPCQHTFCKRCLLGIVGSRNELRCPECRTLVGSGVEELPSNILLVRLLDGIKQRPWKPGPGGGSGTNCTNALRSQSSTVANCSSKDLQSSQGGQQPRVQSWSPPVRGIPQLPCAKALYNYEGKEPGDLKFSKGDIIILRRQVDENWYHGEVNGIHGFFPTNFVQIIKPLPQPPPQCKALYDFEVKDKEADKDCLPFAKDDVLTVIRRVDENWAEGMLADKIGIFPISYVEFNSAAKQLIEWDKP
As to the kind of experiment: IC50 assay procedure: GST-POSH auto-ubiquitination, homogeneous time-resolved fluorescence (Ub-cryptate / anti-GST XL665). The class given is biochemical. The settings on record: ubiquitin ligase activity of POSH; GST-POSH 33 nM, 30 min preincubation. The text has this:
In certain preferred embodiments, agents that inhibit (or promote) the ubiquitin ligase activity of a ubiquitin ligase, such as POSH, may be identified using a homogenous time resolved fluorescence assay. Such an assay may employ a GST fused to the RING subunit of a ubiquitin ligase (e.g. POSH). Two flurophore-conjugated detection reagents are also used: anti-GSTXL665 and europium cryptate labeled ubiqutin. The ubiqutination of the ubiquitin ligase by ubiqutin cryptate and binding of the anti-GST tagged XL665 brings the fluorophores into close proximity allowing FRET reaction to occur. Accordingly, FRET serves as a measurement of ubiquitination of the ubiquitin ligase. An enzymatic system may be set up to provide activated ubiquitin, e.g., by providing ubiquitin, an E1 and an E2. Compounds that will not allow the FRET reaction are considered to be inhibitors.
Step 3: establish IC 50 value measurements.
Experimental Protocols: 1. HTS Screening Assay Procedure • Microplates 10109D to 10114D compounds at 1 mM. • (Controls in column 1). • All compounds were perchase from ChemBridge corporation: ChemBridge corporation 16981 Via Tazon, Suite G San Diego, Calif. 92127 a. Microplates Labeling • Put labels to 6 PS U-bottom clear microplate. • Put labels to 18 black microplates (triplicats). b. Microplates Preparation • Put 100 μl GST-POSH at 33 nM in wells of the clear PS U-bottom microplates (exept wells A1-D1). • Negative control: place 100 μl dH2O in wells A1-D1. • (Positive control: place 100 μl GST-POSH at 33 nM in wells E1-H1). • Put 8 μl enzymes solution ×4 to black microplates (column 1 to 11). c. Incubation of E3 with Compounds • Transfer 5 μl of compounds (at 1 mM) to the microplates containing 100 μl GST-POSH. • Add 5 μl of DMSO to controls column 1. • Incubation 30 minutes at RT. d. Enzymatic (Ubiquitination) and Final Steps • Distribution of (triplicate) 3×23 μl incubated compounds into 3 black microplates containing enzymatic solution (on splitting apparatus). • Incubation 30 minutes at 37° C. • Addition of 8 μl EDTA 0.5 M. • Incubation 15 (at least) minutes at RT. • Addition of 30 μl GST XL 665 in reconstitution buffer. • Incubation 45 (at least) minutes at RT. • Reading fluorescence. • Record results in computer. • Put sealing foil back on original and diluted microplates and keep at −70° C. • Always the plates must be closed with lids during each step. 2. […] Microplates Labeling • Put labels to 4 clear PP clear microplate (18.2 μM, 9.1 uM, 1.82 uM, 910 nM,). • Put labels to 5 clear PS U-bottom clear microplate 4.44 μM, 909, 444, 91 and 44 nM) • Put labels to 15 black microplates (triplicates). f. Original Microplate Dilutions • Put DMSO 40 μl to (18.2 μM, 1.82 uM plates) and 20 ul to (9.1 uM, 910 nM plates. • Mix by pipetation the original microplate (3× up and down 45 μl). • Transfer 10 μl of compounds from the original microplate (at 91 μM) to the next microplate (=18.2 μM) on splitting apparatus. • Mix by pipetation the 18.2 uM microplate (3× up and down 45 μl). • Transfer 20 μl of compounds from the 18.2 uM microplate to the next microplate (=9.1 μM) on splitting apparatus. • Mix by pipetation the 9.1 uM microplate (3× up and down 45 μl). • Transfer 10 μl of compounds from the 9.1 uM microplate to the next microplate (=1.82 μM) on splitting apparatus. • Mix by pipetation the 1.82 uM microplate (3× up and down 45 μl). • Transfer 20 μl of compounds from the 1.82 uM microplate to the next microplate (=910 nM) on splitting apparatus • Mix by pipetation. g. Microplates Preparation • Put 123 μl GST-POSH at 33 nM in wells of the 5 clear PS U-bottom clear microplates. • Positive control: place 123 μl GST-POSH at 33 nM in well A12-h12 13 μl DMSO. • Negative control: place 123 μl dH2O in well B1 and 13 μl DMSO. • Put 8 μl enzymes solution ×4 to 15 black microplates. • Controls: put 8 μl enzymes solution ×4 to wells A1 to F1. h. […]

The term IC50 denotes the concentration that gives 50% inhibition. Read a high IC50 as a need for much substance. As to `CC(C)(C)c1ccc(C2=N/C(=C\c3cccs3)C(=O)O2)cc1` [Compound 48], the activity at 3 µM in test [1] turned out to be 58%. In test [2], the IC50 was 1.3 µM. As for `CC(=C\c1ccccc1)/C=C1/NC(=S)NC1=O` [Compound 30], the IC50 in test [2] worked out at 2 µM. As to `O=C1/C(=C\c2cc(Cl)ccc2O)Sc2ccccc21` [Compound 44], half-maximal inhibition in test [2] (IC50) was put at 0.65 µM. Compared with the last molecule, the IC50 is about 3.1-fold lower. As to `CCCOC(=O)c1ccc(/N=C/c2c(O)ccc3ccccc23)cc1` [Compound 69], the activity at 3 µM in test [1] came out at 41%. The IC50 in test [2] is 0.7 µM.

For `Cc1c(Br)c(=O)oc2c(Br)c(O)c(O)cc12` [Compound 83], 1 µM corresponded to half-maximal inhibition in test [2] (IC50).
